From US20060194828A1, “Vitamin comprising pyroloquinoline quinone and use thereof” (priority 2003, published 2006)
“Also recorded” adds a separate entry of the source.

Experiments:
[1] = tested on: AASDH activity (mU26); assay: PQQ-deficient feedstuff given to mice, levels of amino acids and AAA in blood; format: in vivo, mouse; conditions: PQQ-deficient vs PQQ-added (100 ng PQQ·2Na per gram) feedstuff, ICR female mice, 20 days
From the text: The mice were fed with feedstuff, to which PQQ had not been added (−PQQ) or had been added (+PQQ) and which had chemically been limited, for 20 days. Thereafter, the peripheral blood was collected therefrom, and amino acids contained in the blood were quantified using an amino acid analyzer. The amount of lysine (A) was indicated with a percentage to the total amount of amino acids in blood. The amount of 2-aminoadipic acid was normalized with lysine (B) or glycine (C). The horizontal line represents the mean value of mice in each group.
In order to clarify the role of PQQ influenced on AASDH activity, feedstuff containing no PQQ was given to mice, and such influence was examined. Chemically defined feedstuff (to which no PQQ was added or 100 ng PQQ·2Na was added per gram of feedstuff) was produced in accordance with the publication (Killgore, J. et al. (1989) Science 245, 850-852; Steinberg, F. M. et al. (1994) J. Nutr. 124, 744-753). The thus produced feedstuff was given to virgin female mice (ICR, 4-week-old) for 20 days. The levels of various amino acids and AAA in blood were measured by the above-described method. […] In particular, when normalization was carried out with the amount of lysine, AAA was reduced most clearly (FIG. 6B).

[2] = tested on: PQQ-deficient mice; conditions: skin fragility, skeletal abnormality, decreased immune response, poor reproduction and growth; cited from earlier work

In the case of `O=C(O)c1cc(C(=O)O)c2c(n1)C(=O)C(=O)c1cc(C(=O)O)[nH]c1-2` [PQQ, pyrroloquinoline quinone], the “level of AAA (2-aminoadipic acid) in blood” value ([1]; normalized with lysine or glycine) is listed as “reduced more significantly; also recorded: significantly decreased in PQQ-deficient mice”, the “amount of lysine in blood” value ([1]; percentage to total amino acids in blood) is listed as “not significantly different; also recorded: not changed” and the “amount of PQQ added to feedstuff that recovered the abnormalities of PQQ-deficient mice” value [2] is listed as ≥ 800 ng per gram of feedstuff.
